Assay results from ChEMBL document CHEMBL1201862, “PubChem BioAssay data set” (2004).
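96-well plates; 48 h exposure; 5 concentrations. Endpoints by linear interpolation between flanking doses. Not reached: highest tested concentration assigned. GI50 is the concentration that inhibits growth by half.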 The source made the active and inactive calls. No stated cut-off is given here; in the data, active = GI50 up to about 1.1 µM and inactive = higher.

How the values were obtained:
Test in all cases: NCI-60 cell line screen, 48 h
[1] = tested on: CAKI-1
[2] = tested on: SK-MEL-5
[3] = tested on: SN12C
[4] = tested on: SK-OV-3
[5] = tested on: OVCAR-8
[6] = tested on: OVCAR-3
[7] = tested on: SNB-19
[8] = tested on: HOP-62
[9] = tested on: KM-20L2
[10] = tested on: U-251
[11] = tested on: OVCAR-5
[12] = tested on: HOP-18
[13] = tested on: LOX IMVI
[14] = tested on: NCI-H23
[15] = tested on: SF-539
[16] = tested on: DMS-273
[17] = tested on: LXFL 529
[18] = tested on: UACC-62
[19] = tested on: DMS-114
[20] = tested on: SNB-78
[21] = tested on: SF-268
[22] = tested on: NCI-H226
[23] = tested on: IGROV-1
[24] = tested on: A498
[25] = tested on: 786-0
[26] = tested on: ACHN
[27] = tested on: HCT-116
[28] = tested on: NCI-H460
[29] = tested on: Malme-3M
[30] = tested on: SF-295
[31] = tested on: KM12
[32] = tested on: SNB-75
[33] = tested on: SW-620
[34] = tested on: HOP-92
[35] = tested on: K562
[36] = tested on: CCRF-CEM
[37] = tested on: HCC 2998
[38] = tested on: NCI-H522
[39] = tested on: EKVX
[40] = tested on: OVCAR-4
[41] = tested on: A549
[42] = tested on: SK-MEL-28
[43] = tested on: HT-29
[44] = tested on: TK-10
[45] = tested on: XF498
[46] = tested on: UO-31
[47] = tested on: UACC-257
[48] = tested on: HL-60
[49] = tested on: M19-MEL
[50] = tested on: DLD-1
[51] = tested on: M14
[52] = tested on: RXF 393
[53] = tested on: COLO 205
[54] = tested on: RPMI-8226
[55] = tested on: SK-MEL-2
[56] = tested on: MCF7
[57] = tested on: MOLT-4
[58] = tested on: HCT-15
[59] = tested on: NCI/ADR-RES

In the case of CC(=O)OC(/C=C1/C=CC(=O)O1)COC(=O)c1ccccc1 (stereo not drawn) [ACETYLMELODORINOL], the GI50 [1] is reported as > 31.2 µM (inactive), the GI50 [2] is reported as > 31.2 µM (inactive) and the GI50 [3] is reported as > 31.2 µM (inactive). The GI50 [4] was > 31.2 µM (inactive), the GI50 [5] was > 31.2 µM (inactive) and the GI50 [6] was > 31.2 µM (inactive). The GI50 [7] was > 31.2 µM (inactive), the GI50 [8] was > 31.2 µM (inactive) and the GI50 [9] was > 31.2 µM (inactive). For the same compound, the GI50 [10] was > 31.2 µM (inactive), the GI50 [11] was > 31.2 µM (inactive) and the GI50 [12] was > 31.2 µM (inactive). The GI50 [13] was > 31.2 µM (inactive), the GI50 [14] was > 31.2 µM (inactive) and the GI50 [15] was > 31.2 µM (inactive). For the same compound, the GI50 [16] was > 31.2 µM (inactive), the GI50 [17] was > 31.2 µM (inactive) and the GI50 [18] was > 31.2 µM (inactive). For the same compound, the GI50 [19] was > 31.2 µM (inactive), the GI50 [20] was > 31.2 µM (inactive) and the GI50 [21] was > 31.2 µM (inactive). For the same compound, the GI50 [22] was > 31.2 µM (inactive), the GI50 [23] was > 31.2 µM (inactive) and the GI50 [24] was > 31.2 µM (inactive). The GI50 [25] was > 31.2 µM (inactive), the GI50 [26] was > 31.2 µM (inactive) and the GI50 [27] was > 31.2 µM (inactive). The GI50 [28] was > 31.2 µM (inactive), the GI50 [29] was > 31.2 µM (inactive) and the GI50 [30] was > 31.2 µM (inactive). The GI50 [31] was > 31.2 µM (inactive), the GI50 [32] was > 31.2 µM (inactive) and the GI50 [33] was > 31.2 µM (inactive). The GI50 [34] was > 31.2 µM (inactive), the GI50 [35] was 10.5 µM (inactive) and the GI50 [36] was > 31.2 µM (inactive). For the same compound, the GI50 [37] was > 31.2 µM (inactive), the GI50 [38] was > 31.2 µM (inactive) and the GI50 [39] was > 31.2 µM (inactive). For the same compound, the GI50 [40] was > 31.2 µM (inactive), the GI50 [41] was > 31.2 µM (inactive) and the GI50 [42] was > 31.2 µM (inactive). For the same compound, the GI50 [43] was > 31.2 µM (inactive), the GI50 [44] was > 31.2 µM (inactive) and the GI50 [45] was > 31.2 µM (inactive). The GI50 [46] was > 31.2 µM (inactive), the GI50 [47] was > 31.2 µM (inactive) and the GI50 [48] was > 31.2 µM (inactive). The GI50 [49] was > 31.2 µM (inactive), the GI50 [50] was > 31.2 µM (inactive) and the GI50 [51] was > 31.2 µM (inactive). For the same compound, the GI50 [52] was > 31.2 µM (inactive), the GI50 [53] was > 31.2 µM (inactive) and the GI50 [54] was > 31.2 µM (inactive).
With COC1=CC(=O)c2c(c(O)c3oc4cc(OC)cc(C)c4c(=O)c3c2O)C1=O [BIKAVERIN] the GI50 [1] was 0.195 µM (active), the GI50 [2] was 1 µM (active) and the GI50 [3] was 1.56 µM (inactive). The GI50 [4] was 1.56 µM (inactive), the GI50 [5] was 0.178 µM (active) and the GI50 [6] was 0.809 µM (active). The GI50 [7] was 2.28 µM (inactive), the GI50 [8] was 1.1 µM (active) and the GI50 [9] was 5.94 µM (inactive). The GI50 [10] was 0.879 µM (active), the GI50 [11] was 1.97 µM (inactive) and the GI50 [12] was 0.906 µM (active). For the same compound, the GI50 [13] was 0.535 µM (active), the GI50 [14] was 1.07 µM (active) and the GI50 [15] was 1.32 µM (inactive). For the same compound, the GI50 [16] was 0.759 µM (active), the GI50 [55] was 0.865 µM (active) and the GI50 [18] was 1.24 µM (inactive). The GI50 [19] was 0.462 µM (active), the GI50 [20] was 3.41 µM (inactive) and the GI50 [21] was 4.46 µM (inactive). The GI50 [22] was 0.159 µM (active), the GI50 [23] was 1.08 µM (active) and the GI50 [24] was 1.37 µM (inactive). For the same compound, the GI50 [27] was 1.02 µM (active), the GI50 [28] was 1.34 µM (inactive) and the GI50 [29] was 1.17 µM (inactive). The GI50 [56] was 1.69 µM (inactive), the GI50 [30] was 1.12 µM (inactive) and the GI50 [31] was 3.25 µM (inactive). For the same compound, the GI50 [32] was 1.21 µM (inactive), the GI50 [57] was 0.671 µM (active) and the GI50 [58] was 1.21 µM. For the same compound, the GI50 [33] was 1.6 µM (inactive), the GI50 [34] was 0.578 µM (active) and the GI50 [35] was 0.719 µM (active). The GI50 [36] was 0.741 µM (active), the GI50 [37] was 9.91 µM (inactive) and the GI50 [38] was 0.716 µM (active). The GI50 [39] was 1.01 µM (active), the GI50 [40] was 1.27 µM (inactive) and the GI50 [41] was 1.6 µM (inactive). The GI50 [42] was 2.03 µM (inactive), the GI50 [43] was 19.4 µM (inactive) and the GI50 [59] was 0.881 µM (active). The GI50 [45] was 0.942 µM (active), the GI50 [46] was 1.36 µM (inactive) and the GI50 [47] was 1.2 µM (inactive). For the same compound, the GI50 [48] was 0.386 µM (active), the GI50 [49] was 0.908 µM (active) and the GI50 [50] was 1.8 µM (inactive). The GI50 [52] was 0.912 µM (active), the GI50 [53] was 20.3 µM (inactive) and the GI50 [54] was 1.01 µM (active).
